# Reference: patent US8389544B2, “Isoquinolone compounds as subtype-selective agonists for melatonin receptors MT1 and MT2” (The Hong Kong University of Science and Technology, priority 2007, dated 2013)
# Read-outs that look alike come from different tables or passages of the source.
# Legend:
# Format in all cases: cell-based
# MT2 receptor = biological target: T1, MT2 receptor (Homo sapiens, UniProt P49286); experiment: FLIPR Ca2+ mobilization assay, MT2; design: expressed in transfected cells; host or cells: COS-7 (monkey kidney fibroblast); conditions: for % Response of 2-IMT: relative to 2-IMT response; for agonist character / receptor subtype selectivity in words: FLIPR results, MT1 versus MT2; for Emax: read-out: % Response of 2-IMT
# T1 sequence (P49286 1-362): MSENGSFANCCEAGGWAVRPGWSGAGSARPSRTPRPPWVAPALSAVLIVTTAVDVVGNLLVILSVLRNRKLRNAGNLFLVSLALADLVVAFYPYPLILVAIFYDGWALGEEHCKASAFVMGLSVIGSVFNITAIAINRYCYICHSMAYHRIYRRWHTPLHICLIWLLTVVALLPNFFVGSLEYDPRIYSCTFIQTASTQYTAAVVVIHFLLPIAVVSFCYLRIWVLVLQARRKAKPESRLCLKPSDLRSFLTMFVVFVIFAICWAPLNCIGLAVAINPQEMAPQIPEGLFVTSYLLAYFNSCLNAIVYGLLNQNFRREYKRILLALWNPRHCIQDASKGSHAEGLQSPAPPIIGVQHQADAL
# Experimental: 1. FLIPR Ca^2+ Mobilization Assay
# This assay indicates the ability of the novel compounds to activate MT1 and MT2 receptors by measuring downstream events of the activated receptor, in this case intracellular calcium mobilization.
# 1. Intracellular Ca^2+ Mobilization Assay Using Fluorometric Imaging Plate Reader (FLIPR®)
# An intracellular calcium mobilization assay was performed to screen the isoquinolone compounds against the two melatonin receptor subtypes, MT1 and MT2 on the fluorometric imaging plate reader (FLIPR®). In order to facilitate the screening process in a high-throughput manner, chimeric G proteins with the ability to couple to a range of GPCR as well as activate intracellular Ca^2+ were employed. The melatonin receptor subtype (either MT1 or MT2) was co-expressed with the G-protein chimeras in COS-7 (monkey kidney fibroblast) cells. During the assay, cells were exposed to the novel isoquinolone compounds and the corresponding change in fluorescence was measured. Both single point and dose-dependant assays were performed for each isoquinolone compound and based on the latter a dose response curve was generated and the corresponding EC50 for each receptor subtype determined.
# Specifically, COS-7 cells were seeded at a density of 20,000 cells/well into 96-well plates designed for FLIPR assays, using Opti-MEM with 10% FCS at a volume of 100 μl/well. Transfection was carried out using Lipofectamine 2000® reagent. In each well, 0.2 μg of the GPCR and G protein cDNA were diluted with 25 μl of Opti-MEM and 0.2 μl of Lipofectamine 2000® was diluted with another 25 μl of Opti-MEM. They were added to appropriate wells after the two components were mixed for 20 min.
# After 48 hours of incubation post-transfection, 50 μl of the transfection medium was removed from each well followed by the labelling of transfected cells with 100 μl of 2 μM Fluo-4 in calcium containing HBSS (Hank's balanced salt solution) with 20 mM HEPES (N-[2-hydroxyethyl]piperazine—N′-[2-ethanesulfonic acid]; pH 7.5) and 2.5 mM probenecid (anion exchanger inhibitor, freshly prepared) for 1 hour at 37° C. 70 μl of 3× drugs (isoquinolinone compounds encompassing the invention) were prepared and aliquoted into the corresponding wells in the V-well drug plate. Changes in fluorescence were detected in the FLIPR 96 with an excitation wavelength of 488 nm. The background fluorescence was adjusted to the range of 8,000 to 12,000 units by altering the laser power and exposure time (typically 0.4 W and 0.4 sec, respectively) for the FLIPR setup. 50 μl of each agonist solution was added to the corresponding wells and the fluorescent emission (between 510 and 560 nm) was monitored for 3 min. Results were expressed as change in fluorescent intensity units (FIU). Concentration-response curves were generated by determining the maximal change in FIU of each data set. Numerical analysis of the statistics and EC50 (median effective concentration) values were performed on GraphPad Prism version 3.03.
# Then the intracellular Ca^2+ mobilization assays using the Fluorometric Imaging Plate Reader (FLIPR®) were performed as described above.
# MT1 receptor = MT1 receptor (Homo sapiens, UniProt P48039); experiment: ERK phosphorylation assay, MT1; design: expressed in transfected cells; conditions: HEK293 cells; isoquinolone 1 μM or 2-iodomelatonin 100 nM, 5 min; against unstimulated control cells
# MT1 receptor, sequence (P48039 whole entry): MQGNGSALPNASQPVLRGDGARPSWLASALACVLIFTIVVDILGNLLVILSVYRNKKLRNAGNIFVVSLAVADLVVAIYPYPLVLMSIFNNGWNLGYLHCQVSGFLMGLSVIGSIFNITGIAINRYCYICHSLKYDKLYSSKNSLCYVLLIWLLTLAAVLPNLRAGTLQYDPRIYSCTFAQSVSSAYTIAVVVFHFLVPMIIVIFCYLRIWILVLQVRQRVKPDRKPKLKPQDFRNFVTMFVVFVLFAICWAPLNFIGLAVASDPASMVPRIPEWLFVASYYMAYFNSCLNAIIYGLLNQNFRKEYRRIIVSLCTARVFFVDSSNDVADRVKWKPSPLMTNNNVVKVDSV
# Excerpt: 3. ERK Phosphorylation Assay This assay indicates the ability of the novel compounds to activate MT1 or MT2 receptors by measuring downstream events of the activated receptor, in this case ERK phosphorylation. The amount of phosphorylated ERK1/2 was detected and quantified in western blots. The data in Table 2 is expressed as the fold stimulation against the unstimulated control cells. 6. Detection of ERK phosphorylation […] Stimulation was terminated by aspiration on ice and immediate lysis by 200 μl of 1× protein gel loading buffer. Lysates were denatured by boiling for 5 min and cooled at room temperature until loading. 30 μl of each lysate was separated on 12% SDS-PAGE and transferred to nitrocellulose membrane by electroblotting. Success of transfer was visualized by Ponceau S staining. All subsequent incubations were under gentle agitation (˜100 strokes/min). […] Primary antisera against phosphorylated- or total-ERK1/2 were incubated with the blocked membrane at an appropriate dilution (1:4000-1:2000) in Blotto for overnight at 4° C. The membrane was washed with fresh Blotto for 3 times of 15 min each, then incubated with secondary antiserum (horseradish peroxidase-conjugated anti-rabbit IgG) at the dilution of 1:1000 in 1×TBS for 1 h at room temperature. The membrane was quickly rinsed with excessive 1×TBS for 3 times, and followed by 4 washes of 1×TBS for 10 min. By the end, a premix of luminol-based chemiluminescence substrate solution was prepared (1 ml for every 8 cm^2 of membrane) and overlaid onto the washed membrane to incubate for 1 min. After removing excessive solution, the membrane was covered with saran wrap and an autograph with appropriate exposure was developed on X-ray film in dark room. The image was scanned and the band intensities quantified using ImageJ 1.34. Data was expressed as the percentage response of the vehicle-treated or untreated samples. Experiments were performed at least 3 times and the average responses±SEM were presented.
# MT1/293 = experiment: MTT cytotoxicity assay, MT1/293 cells; conditions: percentage of untreated control cells
# Experimental: This assay evaluates the cytotoxic effects of the novel isoquinolone compounds based on the cellular viability under chronic treatments. Viable cells but not dead cells can turn the substrate into a colored product, which yields higher absorbance. […] A low percentage indicates low cytoviability (or high cytotoxicity).
# 5. Cytotoxicity Test Using MTT Assay
# Cells were seeded into clear 96-well plate at an appropriate density in 100 μl growth medium and were allowed to grow overnight. The novel isoquinolone compounds were diluted to desired concentrations using fresh growth medium, and these dilutions were used to replace the growth media in each well. After incubating for 24-96 h, 10 μl of the MTT labeling reagent (Roche) was added to each well and the cells were incubated in a CO2 incubator for 4 h. 100 μl solubilization buffer was then added into each well and incubated overnight for complete solubilization of the purple formazan crystals. […] Each condition was performed in triplicate in every experiment and the results were expressed as % of blank control±SD.
# [1] = Table 1, MT2 in COS-7 cells with chimeric G protein, log value, negative, NSR = no significant response
# [2] = Table 2, MT2, log value, negative
# [3] = Table 1, MT2 in COS-7 cells with chimeric G protein, log value, negative, NSR = no significant response, read-out: Log(EC50) ± SEM (converted)
structure (smiles),measurement,setting,value
Cn1ccc2cc(OC(=O)c3ccccc3)c(OC(=O)c3ccccc3)cc2c1=O [IS039],% Response of 2-IMT,"MT2 receptor; Table 1, MT2",61.0%
same,Log(EC50) ± SEM,MT2 receptor; [1],−8.64 ± 0.20
same,% Resp of 2-IMT,"MT2 receptor; Table 2, MT2",61.0%
same,logEC50 ± SEM,MT2 receptor; [2],−8.64 ± 0.20
same,EC50,"MT2 receptor; Table 2, MT2, read-out: EC50",2.31 nM
same,ERK Phosphorylation MT1 Fold Stim.,MT1 receptor,2.75 Fold
same,MTT Assay MT1/293 % Viability ± SEM,MT1/293,108.5 ± 3.2%
COc1cc(COc2cc3ccn(C)c(=O)c3cc2OC)cc(OC)c1 [IS042],agonist character / receptor subtype selectivity in words,MT2 receptor,very potent full agonists with high MT2 selectivity
same,EC50,MT2 receptor; [3],0.38 nM
same,% Resp of 2-IMT,"MT2 receptor; Table 2, MT2",84.5%
same,EC50,"MT2 receptor; Table 2, MT2, read-out: EC50",0.379 nM
same,Emax,MT2 receptor,84.5%
same,ERK Phosphorylation MT1 Fold Stim.,MT1 receptor,4.94 Fold
same,MTT Assay MT1/293 % Viability ± SEM,MT1/293,71.6 ± 4.7%
COc1cccc(COc2cc3ccn(C)c(=O)c3cc2OC)c1 [IS044],agonist character / receptor subtype selectivity in words,MT2 receptor,very potent full agonists with high MT2 selectivity
same,% Response of 2-IMT,"MT2 receptor; Table 1, MT2",94.9%
same,Log(EC50) ± SEM,MT2 receptor; [1],−8.42 ± 0.25
same,% Resp of 2-IMT,"MT2 receptor; Table 2, MT2",94.9%
same,logEC50 ± SEM,MT2 receptor; [2],−8.42 ± 0.25
same,EC50,"MT2 receptor; Table 2, MT2, read-out: EC50",3.8 nM
same,ERK Phosphorylation MT1 Fold Stim.,MT1 receptor,3.25 Fold
same,MTT Assay MT1/293 % Viability ± SEM,MT1/293,112.6 ± 5.8%
COc1cccc(COc2cc3c(=O)n(C)ccc3cc2OC)c1 [IS521],agonist character / receptor subtype selectivity in words,MT2 receptor,very potent full agonists with high MT2 selectivity
same,EC50,MT2 receptor; [3],11.5 nM
same,% Resp of 2-IMT,"MT2 receptor; Table 2, MT2",98.9%
same,EC50,"MT2 receptor; Table 2, MT2, read-out: EC50",11.4 nM
same,Emax,MT2 receptor,98.9%
same,ERK Phosphorylation MT1 Fold Stim.,MT1 receptor,3.80 Fold
same,MTT Assay MT1/293 % Viability ± SEM,MT1/293,89.8 ± 8.3%
COc1cc(COc2cc3c(=O)n(C)ccc3cc2OC)cc(OC)c1 [IS523],agonist character / receptor subtype selectivity in words,MT2 receptor,very potent full agonists with high MT2 selectivity
same,EC50,MT2 receptor; [3],45.7 nM
same,% Resp of 2-IMT,"MT2 receptor; Table 2, MT2",61.0%
same,EC50,"MT2 receptor; Table 2, MT2, read-out: EC50",45.4 nM
same,Emax,MT2 receptor,61%
same,ERK Phosphorylation MT1 Fold Stim.,MT1 receptor,3.74 Fold
same,MTT Assay MT1/293 % Viability ± SEM,MT1/293,51.6 ± 1.1%
COc1cc2ccn(C)c(=O)c2cc1OCc1ccc(C(C)(C)C)cc1 [IS526],% Response of 2-IMT,"MT2 receptor; Table 1, MT2",88.6%
same,Log(EC50) ± SEM,MT2 receptor; [1],−5.42 ± 0.76
same,% Resp of 2-IMT,"MT2 receptor; Table 2, MT2",88.6%
same,logEC50 ± SEM,MT2 receptor; [2],−5.42 ± 0.76
same,EC50,"MT2 receptor; Table 2, MT2, read-out: EC50",3770 nM
same,MTT Assay MT1/293 % Viability ± SEM,MT1/293,25.0 ± 4.4%
COc1cccc(COc2c(OC)ccc3c(=O)n(C)ccc23)c1 [IS527],activity / efficacy at MT2 compared to 2-IMT,MT2 receptor,~65%
same,% Resp of 2-IMT,"MT2 receptor; Table 2, MT2",65.9%
same,EC50,"MT2 receptor; Table 2, MT2, read-out: EC50",5.78 nM
same,Emax,MT2 receptor,65.9%
same,EC50,MT2 receptor; read-out: EC50 MT2,5.78 nM
same,ERK Phosphorylation MT1 Fold Stim.,MT1 receptor,2.47 Fold
same,MTT Assay MT1/293 % Viability ± SEM,MT1/293,57.1 ± 3.0%
COc1cc(COc2c(OC)ccc3c(=O)n(C)ccc23)cc(OC)c1 [IS528],activity / efficacy at MT2 compared to 2-IMT,MT2 receptor,~65%
same,% Response of 2-IMT,"MT2 receptor; Table 1, MT2",64.8%
same,Log(EC50) ± SEM,MT2 receptor; [1],−9.43 ± 0.75
same,% Resp of 2-IMT,"MT2 receptor; Table 2, MT2",64.8%
same,logEC50 ± SEM,MT2 receptor; [2],−9.43 ± 0.75
same,EC50,"MT2 receptor; Table 2, MT2, read-out: EC50",0.369 nM
same,EC50,MT2 receptor; read-out: EC50 MT2,0.37 nM
same,ERK Phosphorylation MT1 Fold Stim.,MT1 receptor,1.73 Fold
same,MTT Assay MT1/293 % Viability ± SEM,MT1/293,50.2 ± 5.7%
COc1ccc2c(=O)n(C)ccc2c1OCc1ccc(C)cc1 [IS529],agonist character / receptor subtype selectivity in words,MT2 receptor,activated MT2 only
same,EC50,MT2 receptor; [3],64.6 nM
same,% Resp of 2-IMT,"MT2 receptor; Table 2, MT2",53.6%
same,EC50,"MT2 receptor; Table 2, MT2, read-out: EC50",65.2 nM
same,Emax,MT2 receptor,53.6%
same,ERK Phosphorylation MT1 Fold Stim.,MT1 receptor,2.37 Fold
same,MTT Assay MT1/293 % Viability ± SEM,MT1/293,54.9 ± 2.5%
